Results reported in ChEMBL document CHEMBL1240371, “Randomized, double-blind study of the safety, tolerability, and efficacy of tafenoquine versus mefloquine for malaria prophylaxis in nonimmune subjects” (Antimicrob Agents Chemother, 2010).

Key:
Details in all cases: in vivo, po
[1] = species on record: Homo sapiens; experiment: Toxicity in […] assessed as incidence of vomiting at 250 mg, perorally for 3 days and weekly 250 mg, perorally maintenance dose for 26 +/- 4 weeks; format: organism-based
[2] = species on record: Homo sapiens; experiment: Toxicity in […] assessed as incidence of abdominal pain at 250 mg, perorally for 3 days and weekly 250 mg, perorally maintenance dose for 26 +/- 4 weeks; format: organism-based, Abdomen
[3] = species on record: Homo sapiens; experiment: Toxicity in […] assessed as incidence of nausea at 250 mg, perorally for 3 days and weekly 250 mg, perorally maintenance dose for 26 +/- 4 weeks; format: organism-based
[4] = species on record: Homo sapiens; experiment: Toxicity in […] assessed as incidence of diarrhea at 250 mg, perorally for 3 days and weekly 250 mg, perorally maintenance dose for 26 +/- 4 weeks; format: organism-based
[5] = species on record: Homo sapiens; experiment: Toxicity in […] assessed as incidence of gastroentertis at 250 mg, perorally for 3 days and weekly 250 mg, perorally maintenance dose for 26 +/- 4 weeks; format: organism-based
[6] = species on record: Homo sapiens; experiment: Toxicity in […] assessed as incidence of increase in serum creatinine at 250 mg, perorally for 3 days and weekly 250 mg, perorally maintenance dose for 26 +/- 4 weeks; format: organism-based
[7] = species on record: Homo sapiens; experiment: Toxicity in […] assessed as incidence of pigmentation of retinal epithelium at 250 mg, perorally for 3 days and weekly 250 mg, perorally maintenance dose for 26 +/- 4 weeks; format: organism-based
[8] = species on record: Homo sapiens; experiment: Toxicity in […] assessed as incidence of abnormal retinal fluorescein at 250 mg, perorally for 3 days and weekly 250 mg, perorally maintenance dose for 26 +/- 4 weeks; format: organism-based
[9] = species on record: Homo sapiens; experiment: Toxicity in […] assessed as incidence of vertigo at 250 mg, perorally for 3 days and weekly 250 mg, perorally maintenance dose for 26 +/- 4 weeks; format: organism-based
[10] = species on record: Homo sapiens; experiment: Toxicity in […] assessed as incidence of somnolence at 250 mg, perorally for 3 days and weekly 250 mg, perorally maintenance dose for 26 +/- 4 weeks; format: organism-based
[11] = species on record: Homo sapiens; experiment: Toxicity in […] assessed as incidence of abnormal dreams at 250 mg, perorally for 3 days and weekly 250 mg, perorally maintenance dose for 26 +/- 4 weeks; format: organism-based
[12] = species on record: Homo sapiens; experiment: Toxicity in […] assessed as incidence of dizziness at 250 mg, perorally for 3 days and weekly 250 mg, perorally maintenance dose for 26 +/- 4 weeks; format: organism-based
[13] = species on record: Homo sapiens; experiment: Toxicity in […] assessed as incidence of insomnia at 250 mg, perorally for 3 days and weekly 250 mg, perorally maintenance dose for 26 +/- 4 weeks; format: organism-based
[14] = species on record: Homo sapiens; experiment: Toxicity in […] assessed as incidence of abnormal coordination at 250 mg, perorally for 3 days and weekly 250 mg, perorally maintenance dose for 26 +/- 4 weeks; format: organism-based
[15] = species on record: Homo sapiens; experiment: Toxicity in […] assessed as incidence of depression at 250 mg, perorally for 3 days and weekly 250 mg, perorally maintenance dose for 26 +/- 4 weeks; format: organism-based
[16] = species on record: Homo sapiens; experiment: Toxicity in […] assessed as incidence of increase in bilirubin at 250 mg, perorally for 3 days and weekly 250 mg, perorally maintenance dose for 26 +/- 4 weeks; format: organism-based
[17] = species on record: Homo sapiens; experiment: Toxicity in […] assessed as incidence of viral infection at 250 mg, perorally for 3 days and weekly 250 mg, perorally maintenance dose for 26 +/- 4 weeks; format: organism-based
[18] = species on record: Homo sapiens; experiment: Toxicity in […] assessed as incidence of headache at 250 mg, perorally for 3 days and weekly 250 mg, perorally maintenance dose for 26 +/- 4 weeks; format: organism-based
[19] = species on record: Homo sapiens; experiment: Toxicity in […] assessed as incidence of fungal dermatitis at 250 mg, perorally for 3 days and weekly 250 mg, perorally maintenance dose for 26 +/- 4 weeks; format: organism-based
[20] = species on record: Homo sapiens; experiment: Toxicity in […] assessed as incidence of rash at 250 mg, perorally for 3 days and weekly 250 mg, perorally maintenance dose for 26 +/- 4 weeks; format: organism-based
[21] = species on record: Homo sapiens; experiment: Toxicity in […] assessed as incidence of phayngitis at 250 mg, perorally for 3 days and weekly 250 mg, perorally maintenance dose for 26 +/- 4 weeks; format: organism-based
[22] = species on record: Homo sapiens; experiment: Toxicity in […] assessed as incidence of upper respiratory tract infection at 250 mg, perorally for 3 days and weekly 250 mg, perorally maintenance dose for 26 +/- 4 weeks; format: organism-based
[23] = species on record: Homo sapiens; experiment: Toxicity in […] assessed as incidence of arthralgia at 250 mg, perorally for 3 days and weekly 250 mg, perorally maintenance dose for 26 +/- 4 weeks; format: organism-based
[24] = species on record: Homo sapiens; experiment: Toxicity in […] assessed as incidence of back pain at 250 mg, perorally for 3 days and weekly 250 mg, perorally maintenance dose for 26 +/- 4 weeks; format: organism-based
[25] = species on record: Homo sapiens; experiment: Toxicity in […] assessed as incidence of musculoskeletal injury at 250 mg, perorally for 3 days and weekly 250 mg, perorally maintenance dose for 26 +/- 4 weeks; format: organism-based
[26] = species on record: Homo sapiens; experiment: Toxicity in […] assessed as incidence of viral infection at 200 mg, perorally for 3 days and weekly 200 mg, perorally maintenance dose for 26 +/- 4 weeks; format: organism-based
[27] = species on record: Homo sapiens; experiment: Toxicity in […] assessed as incidence of headache at 200 mg, perorally for 3 days and weekly 200 mg, perorally maintenance dose for 26 +/- 4 weeks; format: organism-based
[28] = species on record: Homo sapiens; experiment: Toxicity in […] assessed as incidence of fungal dermatitis at 200 mg, perorally for 3 days and weekly 200 mg, perorally maintenance dose for 26 +/- 4 weeks; format: organism-based
[29] = species on record: Homo sapiens; experiment: Toxicity in […] assessed as incidence of rash at 200 mg, perorally for 3 days and weekly 200 mg, perorally maintenance dose for 26 +/- 4 weeks; format: organism-based
[30] = species on record: Homo sapiens; experiment: Toxicity in […] assessed as incidence of phayngitis at 200 mg, perorally for 3 days and weekly 200 mg, perorally maintenance dose for 26 +/- 4 weeks; format: organism-based
[31] = species on record: Homo sapiens; experiment: Toxicity in […] assessed as incidence of arthralgia at 200 mg, perorally for 3 days and weekly 200 mg, perorally maintenance dose for 26 +/- 4 weeks; format: organism-based
[32] = species on record: Homo sapiens; experiment: Toxicity in […] assessed as incidence of back pain at 200 mg, perorally for 3 days and weekly 200 mg, perorally maintenance dose for 26 +/- 4 weeks; format: organism-based
[33] = species on record: Homo sapiens; experiment: Toxicity in […] assessed as incidence of vomiting at 200 mg, perorally for 3 days and weekly 200 mg, perorally maintenance dose for 26 +/- 4 weeks; format: organism-based
[34] = species on record: Homo sapiens; experiment: Toxicity in […] assessed as incidence of abdominal pain at 200 mg, perorally for 3 days and weekly 200 mg, perorally maintenance dose for 26 +/- 4 weeks; format: organism-based, Abdomen
[35] = species on record: Homo sapiens; experiment: Toxicity in […] assessed as incidence of nausea at 200 mg, perorally for 3 days and weekly 200 mg, perorally maintenance dose for 26 +/- 4 weeks; format: organism-based
[36] = species on record: Homo sapiens; experiment: Toxicity in […] assessed as incidence of diarrhea at 200 mg, perorally for 3 days and weekly 200 mg, perorally maintenance dose for 26 +/- 4 weeks; format: organism-based
[37] = species on record: Homo sapiens; experiment: Toxicity in […] assessed as incidence of vortex keratopathy at 200 mg, perorally for 3 days and weekly 200 mg, perorally maintenance dose for 26 +/- 4 weeks; format: organism-based
[38] = species on record: Homo sapiens; experiment: Toxicity in […] assessed as incidence of pigmentation of retinal epithelium at 200 mg, perorally for 3 days and weekly 200 mg, perorally maintenance dose for 26 +/- 4 weeks; format: organism-based
[39] = species on record: Homo sapiens; experiment: Toxicity in […] assessed as incidence of abnormal retinal fluorescein at 200 mg, perorally for 3 days and weekly 200 mg, perorally maintenance dose for 26 +/- 4 weeks; format: organism-based
[40] = species on record: Homo sapiens; experiment: Toxicity in […] assessed as incidence of amnesia at 200 mg, perorally for 3 days and weekly 200 mg, perorally maintenance dose for 26 +/- 4 weeks; format: organism-based
[41] = species on record: Homo sapiens; experiment: Toxicity in […] assessed as incidence of decrease in hematocrit at 200 mg, perorally for 3 days and weekly 200 mg, perorally maintenance dose for 26 +/- 4 weeks; format: organism-based; design: scale not given: the % may be the effect or the level left
[42] = species on record: Homo sapiens; experiment: Toxicity in […] assessed as incidence of decrease in hematocrit at 250 mg, perorally for 3 days and weekly 250 mg, perorally maintenance dose for 26 +/- 4 weeks relative to baseline; format: organism-based; design: scale not given: the % may be the effect or the level left
[43] = species on record: Homo sapiens; experiment: Toxicity in […] assessed as incidence of increase in bilirubin at 200 mg, perorally for 3 days and weekly 200 mg, perorally maintenance dose for 26 +/- 4 weeks; format: organism-based
[44] = species on record: Homo sapiens; experiment: Toxicity in […] assessed as incidence of increase in serum creatinine at 200 mg, perorally for 3 days and weekly 200 mg, perorally maintenance dose for 26 +/- 4 weeks; format: organism-based
[45] = species on record: Homo sapiens; experiment: Toxicity in […] assessed as incidence of paroniria at 200 mg, perorally for 3 days and weekly 200 mg, perorally maintenance dose for 26 +/- 4 weeks; format: organism-based
[46] = species on record: Homo sapiens; experiment: Toxicity in […] assessed as incidence of depression at 200 mg, perorally for 3 days and weekly 200 mg, perorally maintenance dose for 26 +/- 4 weeks; format: organism-based
[47] = species on record: Homo sapiens; experiment: Toxicity in […] assessed as incidence of tremor at 200 mg, perorally for 3 days and weekly 200 mg, perorally maintenance dose for 26 +/- 4 weeks; format: organism-based
[48] = species on record: Homo sapiens; experiment: Toxicity in […] assessed as incidence of euphoria at 200 mg, perorally for 3 days and weekly 200 mg, perorally maintenance dose for 26 +/- 4 weeks; format: organism-based
[49] = species on record: Homo sapiens; experiment: Toxicity in […] assessed as incidence of agitation at 200 mg, perorally for 3 days and weekly 200 mg, perorally maintenance dose for 26 +/- 4 weeks; format: organism-based
[50] = species on record: Homo sapiens; experiment: Toxicity in […] assessed as incidence of anxiety at 200 mg, perorally for 3 days and weekly 200 mg, perorally maintenance dose for 26 +/- 4 weeks; format: organism-based
[51] = species on record: Homo sapiens; experiment: Toxicity in […] assessed as incidence of abnormal coordination at 200 mg, perorally for 3 days and weekly 200 mg, perorally maintenance dose for 26 +/- 4 weeks; format: organism-based
[52] = species on record: Homo sapiens; experiment: Toxicity in […] assessed as incidence of insomnia at 200 mg, perorally for 3 days and weekly 200 mg, perorally maintenance dose for 26 +/- 4 weeks; format: organism-based
[53] = species on record: Homo sapiens; experiment: Toxicity in […] assessed as incidence of dizziness at 200 mg, perorally for 3 days and weekly 200 mg, perorally maintenance dose for 26 +/- 4 weeks; format: organism-based
[54] = species on record: Homo sapiens; experiment: Toxicity in […] assessed as incidence of abnormal dreams at 200 mg, perorally for 3 days and weekly 200 mg, perorally maintenance dose for 26 +/- 4 weeks; format: organism-based
[55] = species on record: Homo sapiens; experiment: Toxicity in […] assessed as incidence of somnolence at 200 mg, perorally for 3 days and weekly 200 mg, perorally maintenance dose for 26 +/- 4 weeks; format: organism-based
[56] = species on record: Homo sapiens; experiment: Toxicity in […] assessed as incidence of vertigo at 200 mg, perorally for 3 days and weekly 200 mg, perorally maintenance dose for 26 +/- 4 weeks; format: organism-based

SMILES: OC(c1cc(C(F)(F)F)nc2c(C(F)(F)F)cccc12)C1CCCCN1 (stereo unspecified) [MEFLOQUINE]
- Activity [1]: 8%
- Activity [2]: 13%
- Activity [3]: 13%
- Activity [4]: 30%
- Activity [5]: 51%
- Activity [6]: 10%
- Activity [7]: 23.5%
- Activity [8]: 100%
- Activity [9]: 8%
- Activity [10]: 6%
- Activity [11]: 2%
- Activity [12]: 2%
- Activity [13]: 3%
- Activity [14]: 1%
- Activity [15]: 1%
- Activity [16]: 0.6%
- Activity [17]: 13%
- Activity [18]: 20%
- Activity [19]: 8%
- Activity [20]: 21%
- Activity [21]: 3%
- Activity [22]: 32%
- Activity [23]: 18%
- Activity [24]: 26%
- Activity [25]: 49%

SMILES: COc1cc(C)c2c(Oc3cccc(C(F)(F)F)c3)c(OC)cc(NC(C)CCCN)c2n1 (stereo unspecified) [TAFENOQUINE]
- Activity [26]: 39%
- Activity [27]: 61%
- Activity [28]: 44%
- Activity [29]: 70%
- Activity [30]: 25%
- Activity [31]: 55%
- Activity [32]: 74%
- Activity [33]: 21%
- Activity [34]: 24%
- Activity [35]: 28%
- Activity [36]: 77%
- Activity [37]: 93.2%
- Activity [38]: 39.1%
- Activity [39]: 28.6%
- Activity [40]: 1%
- Activity [41]: 20%
- Activity [42]: 15%
- Activity [43]: 2.6%
- Activity [44]: 19%
- Activity [45]: 1%
- Activity [46]: 1%
- Activity [47]: 2%
- Activity [48]: 2%
- Activity [49]: 2%
- Activity [50]: 2%
- Activity [51]: 2%
- Activity [52]: 5%
- Activity [53]: 5%
- Activity [54]: 7%
- Activity [55]: 12%
- Activity [56]: 22%
